Assay results as given in ChEMBL document CHEMBL1147800, “Osteoblast differentiation stimulating activity of biflavonoids from Cephalotaxus koreana” (2006).
The source made the active and inactive calls. No cut-off for these calls is given here.

Columns and labels:
Osteoblast [1] = assay: Increase in ALP activity in mouse primary osteoblasts at 10 uM relative to control; assay type: functional
Osteoblast [2] = assay: Cytotoxicity against mouse primary osteoblasts at 20 uM by MTT assay; assay type: functional, cell-based
Osteoblast [3] = assay: Increase in ALP activity in mouse primary osteoblasts at 1 uM relative to control; assay type: functional
Osteoblast [4] = assay: Increase in ALP activity in mouse primary osteoblasts at 20 uM relative to control; assay type: functional
Osteoblast [5] = assay: Effect on mineralization in mouse primary osteoblasts by measuring calcium deposition; assay type: functional, cell-based
Osteoblast [6] = assay: Increase in collagen synthesis in mouse primary osteoblasts at 10 uM relative to control; assay type: functional
Osteoblast [7] = assay: Increase in collagen synthesis in mouse primary osteoblasts; assay type: functional, cell-based

Structure (SMILES) | Activity (Osteoblast [1]) [%] | Activity (Osteoblast [2]) | Activity (Osteoblast [3]) [%] | Activity (Osteoblast [4]) [%] | Activity (Osteoblast [5]) | Activity (Osteoblast [6]) [%] | Activity (Osteoblast [7])
COc1cc(O)c2c(=O)cc(-c3ccc(OC)c(-c4c(O)cc(O)c5c(=O)cc(-c6ccc(O)cc6)oc45)c3)oc2c1 [GINKGETIN] | 69.3 | Active | 116.8 | 39.9 |  |  | 
O=c1c(-c2ccc(O)cc2)coc2cc(O)ccc12 [DAIDZEIN] | 132.8 |  | 107.8 | 128.1 |  |  | 
COc1ccc(-c2cc(=O)c3c(O)cc(O)cc3o2)cc1-c1c(O)cc(O)c2c(=O)cc(-c3ccc(O)cc3)oc12 [BILOBETIN] | 131.9 |  | 100.9 | 130.6 | Active |  | 
COc1ccc(-c2cc(=O)c3c(O)cc(O)cc3o2)cc1-c1c(OC)cc(O)c2c(=O)cc(-c3ccc(O)cc3)oc12 | 113 | Active | 101.1 | 73.5 |  |  | 
COc1cc(O)c2c(=O)cc(-c3ccc(OC)c(-c4c(OC)cc(O)c5c(=O)cc(-c6ccc(O)cc6)oc45)c3)oc2c1 | 129.7 |  | 108.4 | 122 |  |  | 
COc1ccc(-c2cc(=O)c3c(O)cc(O)c(-c4cc(-c5cc(=O)c6c(O)cc(OC)cc6o5)ccc4OC)c3o2)cc1 [SCIADOPITISIN] | 149 |  | 121.1 | 153 | Active | 180 | 
COc1ccc(-c2cc(=O)c3c(O)cc(OC)c(-c4cc(-c5cc(=O)c6c(O)cc(OC)cc6o5)ccc4OC)c3o2)cc1 | 147.3 |  | 105.1 | 149.5 | Active |  | Active
